Assays:
ULK1 kinase domain = target: T1, ULK1 kinase domain (Homo sapiens, UniProt O75385); experiment: Differential scanning fluorimetry (thermal shift); assay type: binding; conditions: 2 μM ULK1 kinase domain, 50 μM compound, vs DMSO reference
T1 construct: The protein expression construct of ULK1 kinase domain (1-283) was cloned; 6His-Sumo (N, cleaved yes); made in house; host or cells: E. coli BL21 star, co-expressed with lambda phosphatase
T1 sequence (O75385 1-283): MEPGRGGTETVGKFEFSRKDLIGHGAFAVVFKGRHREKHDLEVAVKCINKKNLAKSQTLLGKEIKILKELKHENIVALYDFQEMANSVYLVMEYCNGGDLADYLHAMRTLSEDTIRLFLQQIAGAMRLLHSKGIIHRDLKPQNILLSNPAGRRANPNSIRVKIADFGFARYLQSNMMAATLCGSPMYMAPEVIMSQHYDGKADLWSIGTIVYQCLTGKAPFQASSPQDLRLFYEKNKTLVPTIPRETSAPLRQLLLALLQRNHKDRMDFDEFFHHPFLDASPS

ULK1 kinase = target: T2, ULK1 kinase (Homo sapiens, UniProt O75385); experiment: Radiometric HotSpot kinase assay (Reaction Biology); assay type: biochemical; conditions: activity-based ULK1 kinase assay
T2 construct: purchased Reaction Biology
T2 sequence (O75385 1-1050): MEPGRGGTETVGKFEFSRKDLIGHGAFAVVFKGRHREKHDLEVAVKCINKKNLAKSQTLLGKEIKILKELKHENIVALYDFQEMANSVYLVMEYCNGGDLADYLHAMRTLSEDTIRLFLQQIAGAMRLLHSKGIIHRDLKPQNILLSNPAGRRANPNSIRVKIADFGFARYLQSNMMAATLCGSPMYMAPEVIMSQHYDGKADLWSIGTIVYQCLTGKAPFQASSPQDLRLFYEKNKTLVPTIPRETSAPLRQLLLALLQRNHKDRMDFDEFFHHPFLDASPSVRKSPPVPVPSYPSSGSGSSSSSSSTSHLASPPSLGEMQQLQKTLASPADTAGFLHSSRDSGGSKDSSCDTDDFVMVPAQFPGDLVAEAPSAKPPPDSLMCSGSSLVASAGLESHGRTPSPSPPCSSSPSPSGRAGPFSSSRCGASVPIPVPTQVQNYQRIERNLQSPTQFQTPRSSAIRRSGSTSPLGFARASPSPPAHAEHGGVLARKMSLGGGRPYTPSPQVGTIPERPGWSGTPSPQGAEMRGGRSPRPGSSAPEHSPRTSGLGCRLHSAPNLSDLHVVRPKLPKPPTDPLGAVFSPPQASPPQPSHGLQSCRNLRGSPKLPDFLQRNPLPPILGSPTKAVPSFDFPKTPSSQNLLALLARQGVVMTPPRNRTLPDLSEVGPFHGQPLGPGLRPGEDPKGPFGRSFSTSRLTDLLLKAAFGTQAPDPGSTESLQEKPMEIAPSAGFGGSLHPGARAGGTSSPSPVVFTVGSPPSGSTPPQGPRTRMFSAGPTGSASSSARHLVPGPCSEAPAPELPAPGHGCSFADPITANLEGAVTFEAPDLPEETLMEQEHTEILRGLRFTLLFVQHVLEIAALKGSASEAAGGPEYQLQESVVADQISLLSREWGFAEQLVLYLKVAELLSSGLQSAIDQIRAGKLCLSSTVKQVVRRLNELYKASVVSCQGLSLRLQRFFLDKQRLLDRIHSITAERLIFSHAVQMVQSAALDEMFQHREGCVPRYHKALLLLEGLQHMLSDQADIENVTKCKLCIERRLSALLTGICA

GST-ULK1 = target: T3, GST-ULK1 (Homo sapiens, UniProt O75385); experiment: LanthaScreen ULK1 inhibitor assay; assay type: biochemical; conditions: 5 nM GST-ULK1, 30 nM tracer, 20 μM ATP, 1 hr room temperature
T3 sequence (O75385 1-1050): T2 sequence (O75385 1-1050)

| IC50 (GST-ULK1) [nM] | Structure (SMILES) | ΔTm at 50 µM (ULK1 kinase domain) [°C] | IC50 (ULK1 kinase) [nM] |
| --- | --- | --- | --- |
|  | CS(=O)(=O)NC1CCN(C(=O)c2cc(-c3cnc4[nH]c(-c5ccc(F)cc5)cc4c3)cs2)C1 (stereo not shown) [Compound 9, N-(1-(4-(2-(4-Fluorophenyl)-1H-pyrrolo[2,3-b]pyridin-5-yl)thiophene-2-carbonyl)pyrrolidin-3-yl)methanesulfonamide] | 1.29 |  |
|  | O=C(c1cc(-c2cnc3[nH]c(-c4ccc(F)cc4)cc3c2)cs1)N1CCC(NC(=O)C(F)(F)F)C1 (stereo not shown) [Compound 24, 2,2,2-Frifluoro-N-(1-(4-(2-(4-fluorophenyl)-1H-pyrrolo[2,3-b]pyridin-5-yl)thiophene-2-carbonyl)pyrrolidin-3-yl)acetamide] | 0.4 |  |
|  | CC(C)(C)OC(=O)N1CCC(c2cc3cc(-c4csc(C(=O)NCC(F)(F)F)c4)cnc3[nH]2)CC1 [Compound 40, tert-Butyl 4-(5-(5-((2,2,2-trifluoroethyl)carbamoyl)thiophen-3-yl)-1H-pyrrolo[2,3-b]-pyridin-2-yl)piperidine-1-carboxylate] | 1.63 |  |
|  | CC(C)(C)OC(=O)N1CCCC(c2cc3cc(-c4csc(C(=O)NCC(F)(F)F)c4)cnc3[nH]2)C1 (stereo not shown) [Compound 43, tert-Butyl 3-(5-(5-((2,2,2-trifluoroethyl)carbamoyl)thiophen-3-yl)-1H-pyrrolo[2,3-b]-pyridin-2-yl)piperidine-1-carboxylate] | 4.2 |  |
|  | O=C(c1nc(-c2cnc3[nH]c(-c4ccc(F)cc4)cc3c2)cs1)N1CC(F)(F)C1 [Compound 75, (3,3-difluoroazetidin-1-yl)(4-(2-(4-fluorophenyl)-1H-pyrrolo[2,3-b]-pyridin-5-yl)thiazol-2-yl)-methanone] | 3 |  |
|  | FC1(F)CN(c2c(C(F)(F)F)cnc3[nH]c(C4CCOCC4)cc23)C1 [Compound 85, 4-(3,3-difluoroazetidin-1-yl)-2-(tetrahydro-2H-pyran-4-yl)-5-(trifluoromethyl)-1H-pyrrolo[2,3-b]pyridine] | 0.54 |  |
|  | FC1(F)CCN(c2c(C(F)(F)F)cnc3[nH]c(C4CCOCC4)cc23)CC1 [Compound 92, 4-(4,4-difluoropiperidin-1-yl)-2-(tetrahydro-2H-pyran-4-yl)-5-(trifluoromethyl)-1H-pyrrolo[2,3-b]pyridine] | 0.88 |  |
|  | CN1CCC(c2cc3c(NCCCN4CCCC4)c(C(F)(F)F)cnc3[nH]2)CC1 [Compound 94, 2-(1-methylpiperidin-4-yl)-N-(3-(pyrrolidin-1-yl)propyl)-5-(trifluoromethyl)-1H-pyrrolo[2,3-b]pyridin-4-amine] | 0.76 |  |
|  | CN1CCC(c2cc3c(N4CC(F)(F)C4)c(C(F)(F)F)cnc3[nH]2)CC1 [Compound 96, 4-(3,3-difluoroazetidin-1-yl)-2-(1-methylpiperidin-4-yl)-5-(trifluoromethyl)-1H-pyrrolo[2,3-b]pyridine] | 3.09 |  |
| 80 | O=C(NCC1(O)CC1)c1cc(-c2cnc3[nH]c(C4=CCNC4)cc3c2)cs1 [Compound 109] |  |  |
| 8 | FC(F)(F)c1cnc2[nH]c(C3=CCCNC3)cc2c1NCCN1CCNCC1 [Compound 112] |  |  |
| 63 | FC(F)(F)c1cnc2[nH]c(C3=CCNC3)cc2c1NCCN1CCNCC1 [Compound 113] |  |  |
| 14 | FC(F)(F)c1cnc2[nH]c(C3=CCNCC3)cc2c1NCCN1CCNCC1 [Compound 114] |  |  |
| 81 | FC1(F)CN(c2c(C(F)(F)F)cnc3[nH]c(C4=CCNCC4)cc23)C1 [Compound 115] |  |  |
| 201 | FC(F)(F)c1cnc2[nH]c(C3=CCCNC3)cc2c1NCCN1CCOCC1 [Compound 116] |  |  |
| 85 | FC(F)(F)c1cnc2[nH]c(C3=CCNC3)cc2c1NCCN1CCOCC1 [Compound 117] |  |  |
| 126 | FC(F)(F)c1cnc2[nH]c(C3=CCNCC3)cc2c1NCCN1CCOCC1 [Compound 118] |  |  |
| 1600 | FC(F)(F)c1cnc2[nH]c(C3=CCCNC3)cc2c1NCCCN1CCCC1 [Compound 119] |  |  |
| 1210 | FC(F)(F)c1cnc2[nH]c(C3=CCNC3)cc2c1NCCCN1CCCC1 [Compound 120] |  |  |
| 320 | FC(F)(F)c1cnc2[nH]c(C3=CCNCC3)cc2c1NCCCN1CCCC1 [Compound 121] |  |  |
| 884 | FC1(F)CN(c2c(C(F)(F)F)cnc3[nH]c(C4=CCCNC4)cc23)C1 [Compound 141] |  |  |
| 88 | O=C(NCC(F)(F)F)c1cc(-c2cnc3[nH]c(C4=CCN(C5CCC(C(=O)O)CC5)CC4)cc3c2)cs1 (stereo not shown) [compound 142] |  |  |

| Structure (SMILES) | IC50 (GST-ULK1) [nM] | ΔTm at 50 µM (ULK1 kinase domain) [°C] | IC50 (ULK1 kinase) [nM] |
| --- | --- | --- | --- |
| CS(=O)(=O)N1CCN(C(=O)c2cc(-c3cnc4[nH]c(-c5ccc(F)cc5)cc4c3)cs2)CC1 [Compound 29, (4-(2-(4-Fluorophenyl)-1H-pyrrolo[2,3-b]pyridin-5-yl)thiophen-2-yl)(4-(methyl-sulfonyl)piperazin-1-yl)methanone] | 1230 | 0.9 | 938 |
| CC(C)(C)OC(=O)N1CCC=C(c2cc3cc(-c4csc(C(=O)NCC(F)(F)F)c4)cnc3[nH]2)C1 [Compound 41, tert-Butyl 5-(5-(5-((2,2,2-trifluoroethyl)carbamoyl)thiophen-3-yl)-1H-pyrrolo[2,3-b]-pyridin-2-yl)-3,6-dihydropyridine-1(2H)-carboxylate] | 75 | 9.89 | 333 |
| O=C(NC[C@@H](O)CO)c1cccc(-c2cnc3[nH]c(-c4ccc(F)cc4)cc3c2)c1 [Compound 48, (R)—N-(2,3-Dihydroxypropyl)-3-(2-(4-fluorophenyl)-1H-pyrrolo[2,3-b]pyridin-5-yl)benzamide] | 475 | 4.52 | 261 |
| O=C(NC(CO)CO)c1cccc(-c2cnc3[nH]c(-c4ccc(F)cc4)cc3c2)c1 [Compound 49, N-(1,3-Dihydroxypropan-2-yl)-3-(2-(4-fluorophenyl)-1H-pyrrolo[2,3-b]pyridin-5-yl)benzamide] | 543 | 5.11 | 341 |
| O=C(NCC(O)C(F)(F)F)c1cccc(-c2cnc3[nH]c(-c4ccc(F)cc4)cc3c2)c1 (stereo not shown) [Compound 50, 3-(2-(4-Fluorophenyl)-1H-pyrrolo[2,3-b]pyridin-5-yl)-N-(3,3,3-trifluoro-2-hydroxy-propyl)benzamide] | 86 | 4.4 | 91 |
| O=C(NC[C@H](O)CO)c1cccc(-c2cnc3[nH]c(-c4ccc(F)cc4)cc3c2)c1 [Compound 51, (S)—N-(2,3-Dihydroxypropyl)-3-(2-(4-fluorophenyl)-1H-pyrrolo[2,3-b]pyridin-5-yl)-benzamide] | 387 | 4.76 | 184 |
| O=C(NC[C@@H](O)CO)c1cccc(-c2cnc3[nH]c(-c4ccc(F)cc4)cc3c2)n1 [Compound 52, (R)—N-(2,3-Dihydroxypropyl)-6-(2-(4-fluorophenyl)-1H-pyrrolo[2,3-b]pyridin-5-yl)-picolinamide] | 106 | 8.86 | 45 |
| CC[C@H](CO)NC(=O)c1cccc(-c2cnc3[nH]c(-c4ccc(F)cc4)cc3c2)c1 [Compound 53, (R)-3-(2-(4-Fluorophenyl)-1H-pyrrolo[2,3-b]pyridin-5-yl)-N-(1-hydroxybutan-2-yl)benzamide] | 94 | 3.11 | 66 |
| CC[C@@H](CO)NC(=O)c1cccc(-c2cnc3[nH]c(-c4ccc(F)cc4)cc3c2)c1 [Compound 54, (S)-3-(2-(4-Fluorophenyl)-1H-pyrrolo[2,3-b]pyridin-5-yl)-N-(1-hydroxybutan-2-yl)benzamide] | 5850 | 1.62 | 1470 |

From patent US20250042895A1, “INHIBITORS OF ULK1 AND METHODS OF USE” (H. LEE MOFFITT CANCER CENTER AND RESEARCH INSTITUTE, INC., priority 2021, published 2025)
